Source: US20200246352A1, “Vanadyl and vanadate for use in reducing stress-induced metabolic derangement” (CFM Pharma Holding B.V., priority 2017, published 2020)
Values joined by “and” are separate entries in the source; they are usually repeats but may differ in a detail not shown here. Equal values may be shown once.

Assays:
healthy male Wistar rats [1] = assay: Series 2: BMOV cumulative infusion during adrenaline (or saline) infusion, blood glucose; type: in vivo, rat
Experimental: Glucose levels were measured at t=0, 120, 140, 160, 180 and 200 min.
Blood glucose levels were measured at each time point in duplicates by directly dripping blood onto DCont TREND test strips (77 Elektronika, Budapest, Hungary). […] Blood samples were centrifuged at 4.000 rpm at 4° C. for 15 min. The prepared, separated samples derived from the centrifuged plasma (total volume 200 μl) were kept at −70° C. until shipment.

healthy male Wistar rats [2] = assay: Example 2: BMOV pre-treatment before adrenaline-induced stress hyperglycemia, blood glucose; type: in vivo, rat
Experimental: See Table 8 and Table 9 for further details.
Measurement of glucose levels was performed by DCont TREND glucometer. DCont TREND test strips (77 Elektronika, http://www.regolymedical.hu/en/measuring-tools-and-surgicalinstruments/vercukormero-d-cont-trend.html), in duplicate in order to determine blood glucose levels. See Table 9 for the blood sampling regime during the course of the experiment.

[3] = Saline + BMOV group, 0 min, before saline and BMOV
[4] = Saline + BMOV group, 120 min of saline, before BMOV dose 1
[5] = Saline + BMOV group, 140 min, after BMOV 1 (0.34 mg/kg iv over 20 min)
[6] = Saline + BMOV group, 180 min, after BMOV 3 (2.89 mg/kg, cumulative)
[7] = Saline + BMOV group, 200 min, after BMOV 4 (8.50 mg/kg, cumulative)
[8] = Tonogen + BMOV group (adrenaline 1 μg/kg/min), 0 min, before adrenaline and BMOV
[9] = Tonogen + BMOV group, 120 min of adrenaline, before BMOV dose 1
[10] = Tonogen + 1x BMOV (15 mg/kg ip 3 h before adrenaline 0.3 microgram/kg/min), 0 min
[11] = Tonogen + 1x BMOV (15 mg/kg ip 3 h before adrenaline), 30 min
[12] = Tonogen + 1x BMOV (15 mg/kg ip 3 h before adrenaline), 60 min
[13] = Tonogen + 1x BMOV (15 mg/kg ip 3 h before adrenaline), 90 min
[14] = Tonogen + 1x BMOV (15 mg/kg ip 3 h before adrenaline), 120 min
[15] = Tonogen + 1x BMOV (15 mg/kg ip 3 h before adrenaline), 150 min
[16] = Tonogen + 1x BMOV (15 mg/kg ip 3 h before adrenaline), 180 min
[17] = Tonogen + 2x BMOV (15 mg/kg ip 16-24 h and 3 h before adrenaline 0.3 microgram/kg/min), 0 min
[18] = Tonogen + 2x BMOV (15 mg/kg ip 16-24 h and 3 h before adrenaline), 30 min
[19] = Tonogen + 2x BMOV (15 mg/kg ip 16-24 h and 3 h before adrenaline), 60 min
[20] = Tonogen + 2x BMOV (15 mg/kg ip 16-24 h and 3 h before adrenaline), 90 min
[21] = Tonogen + 2x BMOV (15 mg/kg ip 16-24 h and 3 h before adrenaline), 120 min
[22] = Tonogen + 2x BMOV (15 mg/kg ip 16-24 h and 3 h before adrenaline), 150 min
[23] = Tonogen + 2x BMOV (15 mg/kg ip 16-24 h and 3 h before adrenaline), 180 min
[24] = two doses of BMOV at different time points before stress

Structure (SMILES): Cc1occc(=O)c1[O-].Cc1occc(=O)c1[O-].[O]=[V+2] [BMOV, Bis(maltolato)oxovanadium]
- Effect on the increase of the glucose level (healthy male Wistar rats [1]; BMOV administered after the start of and during continued stress (adrenaline infusion)): lowers the extent of the increase of the glucose level
- Blood glucose level, individual animal in duplicate (healthy male Wistar rats [1]; [3]): 4.7 mM/l and 4.8 mM/l
- Blood glucose level, mean (healthy male Wistar rats [1]; [3]): 4.75 mM/l
- Blood glucose level, individual animal in duplicate (healthy male Wistar rats [1]; [4]): 5.7 mM/l and 5.3 mM/l
- Blood glucose level, mean (healthy male Wistar rats [1]; [4]): 5.50 mM/l
- Blood glucose level, individual animal in duplicate (healthy male Wistar rats [1]; [5]): 6.3 mM/l
- Blood glucose level, mean (healthy male Wistar rats [1]; [5]): 6.30 mM/l
- Blood glucose level, mean (healthy male Wistar rats [1]; Saline + BMOV group, 160 min, after BMOV 2 (1.02 mg/kg, cumulative)): 6.60 mM/l
- Blood glucose level, individual animal in duplicate (healthy male Wistar rats [1]; Saline + BMOV group, 160 min, after BMOV 2 (1.02 mg/kg, cumulative), 1.02 mg/kg): 6.5 mM/l and 6.7 mM/l
- Blood glucose level, individual animal in duplicate (healthy male Wistar rats [1]; [6]): 5.9 mM/l
- Blood glucose level, mean (healthy male Wistar rats [1]; [6]): 5.90 mM/l
- Blood glucose level, individual animal in duplicate (healthy male Wistar rats [1]; [7]): 3.8 mM/l
- Blood glucose level, mean (healthy male Wistar rats [1]; [7]): 3.80 mM/l
- Blood glucose level, individual animals in duplicate (healthy male Wistar rats [1]; [8]): 8.4 mM/l and 7.8 mM/l and 6.0 mM/l (2×)
- Blood glucose level, mean (healthy male Wistar rats [1]; [8]): 7.05 mM/l
- Blood glucose level, individual animals in duplicate (healthy male Wistar rats [1]; [9]): 16.4 mM/l and 16.5 mM/l and 11.7 mM/l and 11.2 mM/l
- Blood glucose level, mean (healthy male Wistar rats [1]; [9]): 13.95 mM/l
- Blood glucose level, mean (healthy male Wistar rats [1]; Tonogen + BMOV group, 140 min, after BMOV 1 (0.34 mg/kg iv over 20 min)): 15.55 mM/l
- Blood glucose level, individual animals in duplicate (healthy male Wistar rats [1]; Tonogen + BMOV group, 140 min, after BMOV 1 (0.34 mg/kg iv over 20 min), 0.34 mg/kg): 17.9 mM/l and 17.5 mM/l and 13.5 mM/l and 13.3 mM/l
- Blood glucose level, mean (healthy male Wistar rats [1]; Tonogen + BMOV group, 160 min, after BMOV 2 (1.02 mg/kg, cumulative)): 15.18 mM/l
- Blood glucose level, individual animals in duplicate (healthy male Wistar rats [1]; Tonogen + BMOV group, 160 min, after BMOV 2 (1.02 mg/kg, cumulative), 1.02 mg/kg): 14.6 mM/l and 14.5 mM/l and 15.7 mM/l and 15.9 mM/l
- Blood glucose level, mean (healthy male Wistar rats [1]; Tonogen + BMOV group, 180 min, after BMOV 3 (2.89 mg/kg, cumulative)): 11.03 mM/l
- Blood glucose level, individual animals in duplicate (healthy male Wistar rats [1]; Tonogen + BMOV group, 180 min, after BMOV 3 (2.89 mg/kg, cumulative), 2.89 mg/kg): 7.8 mM/l and 7.9 mM/l and 14.2 mM/l (2×)
- Blood glucose level, mean (healthy male Wistar rats [1]; Tonogen + BMOV group, 200 min, after BMOV 4 (8.50 mg/kg, cumulative)): 7.28 mM/l
- Blood glucose level, individual animals in duplicate (healthy male Wistar rats [1]; Tonogen + BMOV group, 200 min, after BMOV 4 (8.50 mg/kg, cumulative), 8.5 mg/kg): 4.3 mM/l and 4.4 mM/l and 10.1 mM/l and 10.3 mM/l
- Effect on hyperglycemia compared to adrenaline+vehicle control group (healthy male Wistar rats [1]; adrenaline 1 μg/kg/min, at 160-180 min): significantly decreased hyperglycemia
- Effect of pretreatment on occurrence of hyperglycemia (healthy male Wistar rats [2]; BMOV 3 h before stress, or at 16-24 h and 3 h before stress (adrenaline infusion)): surprisingly high reduction of the occurrence of hyperglycemia
- Blood glucose, individual animals in duplicate (healthy male Wistar rats [2]; [10]): 6.1 mM/l and 6.7 mM/l and 5.1 mM/l and 4.9 mM/l and 6.3 mM/l and 5.9 mM/l
- Blood glucose, mean (healthy male Wistar rats [2]; [10]): 5.833 mM/l
- Blood glucose, individual animals in duplicate (healthy male Wistar rats [2]; [11]): 6.9 mM/l (2×) and 5.1 mM/l and 5.9 mM/l and 7.5 mM/l and 7.2 mM/l
- Blood glucose, mean (healthy male Wistar rats [2]; [11]): 6.583 mM/l
- Blood glucose, individual animals in duplicate (healthy male Wistar rats [2]; [12]): 8.4 mM/l and 8 mM/l and 6 mM/l (2×) and 9.7 mM/l and 10 mM/l
- Blood glucose, mean (healthy male Wistar rats [2]; [12]): 8.017 mM/l
- Blood glucose, individual animals in duplicate (healthy male Wistar rats [2]; [13]): 9.4 mM/l and 9.2 mM/l and 9.8 mM/l and 9.7 mM/l and 8.6 mM/l and 9 mM/l
- Blood glucose, mean (healthy male Wistar rats [2]; [13]): 9.283 mM/l
- Blood glucose, individual animals in duplicate (healthy male Wistar rats [2]; [14]): 10.7 mM/l and 11.2 mM/l and 12.2 mM/l and 11.5 mM/l and 4.6 mM/l and 4.7 mM/l
- Blood glucose, mean (healthy male Wistar rats [2]; [14]): 9.15 mM/l
- Blood glucose, individual animals in duplicate (healthy male Wistar rats [2]; [15]): 12.3 mM/l and 12.6 mM/l and 11.7 mM/l and 11.6 mM/l
- Blood glucose, mean (healthy male Wistar rats [2]; [15]): 12.05 mM/l
- Blood glucose, individual animals in duplicate (healthy male Wistar rats [2]; [16]): 12.4 mM/l and 12.2 mM/l and 11.9 mM/l (2×)
- Blood glucose, mean (healthy male Wistar rats [2]; [16]): 12.1 mM/l
- Blood glucose, individual animals in duplicate (healthy male Wistar rats [2]; [17]): 5.2 mM/l (2×) and 5.4 mM/l and 4.4 mM/l and 4.3 mM/l and 5.1 mM/l and 5.8 mM/l and 4.8 mM/l
- Blood glucose, mean (healthy male Wistar rats [2]; [17]): 5.025 mM/l
- Blood glucose, individual animals in duplicate (healthy male Wistar rats [2]; [18]): 5.2 mM/l and 4.8 mM/l and 5 mM/l (2×) and 5.3 mM/l (2×) and 6.3 mM/l and 6.1 mM/l
- Blood glucose, mean (healthy male Wistar rats [2]; [18]): 5.375 mM/l
- Blood glucose, individual animals in duplicate (healthy male Wistar rats [2]; [19]): 5.2 mM/l and 4.4 mM/l and 4.3 mM/l and 6.3 mM/l and 6.4 mM/l and 7.1 mM/l and 7 mM/l and 5.3 mM/l
- Blood glucose, mean (healthy male Wistar rats [2]; [19]): 5.75 mM/l
- Blood glucose, individual animals in duplicate (healthy male Wistar rats [2]; [20]): 5.8 mM/l (2×) and 3.4 mM/l and 3.2 mM/l and 6.4 mM/l and 6.8 mM/l and 8.5 mM/l and 8.2 mM/l
- Blood glucose, mean (healthy male Wistar rats [2]; [20]): 6.0125 mM/l
- Blood glucose, individual animals in duplicate (healthy male Wistar rats [2]; [21]): 6.7 mM/l (2×) and 2.7 mM/l and 2.6 mM/l and 7.4 mM/l and 7.7 mM/l and 9.1 mM/l and 8.6 mM/l
- Blood glucose, mean (healthy male Wistar rats [2]; [21]): 6.4375 mM/l
- Blood glucose, individual animals in duplicate (healthy male Wistar rats [2]; [22]): 7.4 mM/l and 1.4 mM/l and 1.3 mM/l and 7.7 mM/l (2×) and 7.9 mM/l and 7.6 mM/l and 7.5 mM/l
- Blood glucose, mean (healthy male Wistar rats [2]; [22]): 6.0625 mM/l
- Blood glucose, individual animals in duplicate (healthy male Wistar rats [2]; [23]): 6.7 mM/l and 7 mM/l and 6.8 mM/l and 4.6 mM/l and 4.8 mM/l and 6.9 mM/l
- Blood glucose, mean (healthy male Wistar rats [2]; [23]): 6.133 mM/l
- Effect on occurrence of hyperglycemia during the period of stress (healthy male Wistar rats [2]; first dose 16 to 24 h and second dose 3 h prior to stress): inhibited the occurrence of hyperglycemia
- Effect on extent of hyperglycemia during the period of stress (healthy male Wistar rats [2]; single dose of BMOV 3 h prior to stress): reduced the extent of hyperglycemia considerably
- Maximum average glucose level in the blood (healthy male Wistar rats [2]; [24]): about 6.4 mmol/l
- Rise in blood glucose level (healthy male Wistar rats [2]; [24]): ≤ 28%
